In publication PMC10009108, “Design, synthesis and screening of indole acetic acid-based tri-azo moieties as antioxidants, anti-microbial and cytotoxic agents” (Frontiers in Pharmacology, 2023):
Converted amounts (≈) assume the structure as drawn.

Legend:
in vivo = assay: in vivo
Method: The cytotoxic evaluation was accomplished using the decorum designed by ([Khan et al., 2011]). To a plate of 96 wells, artificial seawater and nauplii were added. Test samples were taken in wells (40, 20, 10, 5 μg/mL) after making up the final volume with seawater, the plates were left uncovered under the lamp, and after 24 h, the number of surviving larvae was calculated. For samples having ≥50% mortality, the median lethal conc was calculated using the table curve software, Doxorubicin was used as + ve control, and DMSO was the -ve. The percentage of killed organisms was found using the formula. Percentage Mortality=No of dead shrimps÷Total Number of Shrimps×100
The results of all the experiments were articulated as mean ± SD. Each test was performed in triplicate. TAC assay was analyzed by one-way analysis of variance (ANOVA) following DUNCAN’S test using the statistical package for social sciences 18 and p < 0.05 was considered as significant where appropriate. For samples having ≥50% mortality, the median lethal concentration (LC50) was calculated using the table curve software.
This evaluation test forms the basis for the bioactive scanning of compounds for their potential as anti-cancer moieties, to be investigated on a large scale ([Amanullah et al., 2012]). […] Similarities between Artemia salina and mammalian cells have been reported due to DNA-dependent RNA polymerases ([Birndorf et al., 1975]). These Schiff bases were investigated for their cytotoxic potential. […] Doxorubicin was used as the positive control.

[1] = system: Escherichia coli (ATCC-25922); assay: Antibacterial assay, micro broth dilution; type: cell-based; parameters: key: Active = Bacterial activity; --- = no activity; settings: 25 μg/mL
[2] = system: Streptomyces 85 E strains; assay: Protein kinase inhibition assay; type: cell-based; parameters: key to Bald zone: Active = Bacterial activity; --- = no activity; settings: Sample Concentration = 20 μg/mL; Surfactin B 20 μg/mL
MRSA [3] = assay: Antibacterial assay, resistant strains; type: cell-based, Staphylococcus aureus; settings: 25 μg/mL; resistant strain
resistant E.coli = assay: Antibacterial assay, resistant strains; type: cell-based, Escherichia coli; parameters: key to Antibacterial activity, resistant E.coli: Activity: Positive = have anti-bacterial activity; --- = no anti-bacterial activity; settings: 25 μg/mL; resistant strain
From the text: (§1) The micro broth dilution method was used to establish the antibacterial potential of test samples against Staphylococcus aureus (ATCC-6538), Bacillus subtilis (ATCC-6633), Escherichia coli (ATCC-25922), Klebsiella pneumoniae (ATCC-1705), and Pseudomonas aeruginosa (ATCC-15442) and for the resistant strains of MRSA Staphylococcus aureus, P. aeruginosa and Escherichia coli. The procedure used is described by ([Sarker et al., 2007]). Bacterial inoculum was formed under aseptic conditions keeping the density near 5 × 10^4 CFU/mL in pre-autoclaved nutrient broth. Test samples of an aliquot of 5 µL were shifted to labeled wells of 96 well plates, and after that addition of 195 µL of nutrient broth; was accomplished. After that, a 2-fold serial dilution of every sample was arranged to get final concentrations of 12.5 μg/mL. Then, with the help of a micropipette, 195 µL of bacterial culture of respective strains was poured into each well; further advancement was incubating of plates for 30 min at the temperature of 37°C. […] Incubation of plates was again carried out at 37°C for 1 day, absorbance was noted, and net change in turbidity was the difference between two values of absorbance.
(§2) Schiff base tri-azo compounds were investigated for antibacterial potential. […] 6.25 μg/mL for 5b and 5g, and the least, Table 4 3.12 μg/mL was for 5f. […] Substituents with electron-withdrawing attributes, e.g., -NO2, -Cl, -OH on the aromatic ring, assert a great impact on the antibacterial activity of synthetic compounds. It is also observed that an increase in the number of -OH groups tend to enhance the activity ([Hosamani and Shingalapur, 2011]). Due to the difference in cell-wall composition of Gram + ve and -ve bacteria, different compounds show different features towards the same micro-organism ([Goszczyn’ska et al., 2015]).

MRSA [4] = assay: Antibacterial assay, resistant strains; type: cell-based; settings: Staphylococcus aureus, resistant strain
From the text: as §1, §2

[5] = system: Pseudomonas aeruginosa (ATCC-15442); assay: Antibacterial assay, micro broth dilution; type: cell-based; parameters: key: Active = Bacterial activity; --- = no activity; settings: 25 μg/mL
[6] = system: Klebsiella pneumoniae (ATCC-1705); assay: Antibacterial assay, micro broth dilution; type: cell-based
From the text: as §1, §2

[7] = system: Mucor species (FCBP-0300); assay: Antifungal disc diffusion assay; type: cell-based; parameters: key to Zone of inhibition, Mucor: --- = no anti-fungal activity; settings: 20 μg/disc
Method: (§3) The antifungal response to these chemical moieties was evaluated through a procedure designated by ([Zahra et al., 2017]). Amphotericin B (4 mg/mL DMSO) is used as + ve control and DMSO as-ve one (5 μL/disc). Sterile SDA-coated plates were used, on which 100 µL of suspension of spores for each strain (previously reaped-in-Tween-20 solution) was spread. Discs of sterile filter paper containing 5 µL of sample solution (4 mg/mL DMSO) were kept on plates and incubated for 2 days at 28°C. Zones of inhibition were recorded.
(§4) The Synthetic compound library was subjected to an antifungal assay using five different strains of Fungai, i.e., Fusarium solani (FCBP-0291), Aspergillus fumigatus (FCBP-66), Aspergillus flavus (FCBP-0064), Aspergillus niger (FCBP-0198) and Mucor species (FCBP-0300). Amphotericin B was the standard drug used. […] The outcomes are concise in Table 5.

[8] = system: Fusarium solani (FCBP-0291); assay: Antifungal disc diffusion assay; type: cell-based; parameters: key to Zone of inhibition, F. solani: --- = no anti-fungal activity
Method: as §3, §4

[9] = system: Staphylococcus aureus (ATCC-6538); assay: Antibacterial assay, micro broth dilution; type: cell-based; parameters: key: Active = Bacterial activity; --- = no activity; settings: 25 μg/mL

Row | SMILES | LC50 at 24 h (in vivo) | Antibacterial activity, E. coli: Activity [1] | Bald zone [2] | Antibacterial activity, MRSA: Activity (MRSA [3]) | Antibacterial activity, resistant E.coli: Activity (resistant E.coli) | MIC (MRSA [4]) | Antibacterial activity, Pseudomonas aeruginosa: Activity [5] | MIC ([6]; ATCC1705) | Zone of inhibition, Mucor [7] | Zone of inhibition, F. solani ([8]; 20 μg/disc) | Antibacterial activity, S. aureus: Activity [9] | antifungal activity against Fusarium solani (in words) [8] | zone of inhibition at 20 µg/disc ([8]; Fusarium solani, 20 μg/disc, read-out: Zone of inhibition, F. solani) | MIC ([6]; ATCC1705, 24 h) | Clear zone [2]
1 | COc1cccc(C=Nn2c(Cc3c[nH]c4ccccc34)n[nH]c2=S)c1 [Compound 5b] | 14.1 µg/mL (≈ 38.9 µM) | --- | 10.5 mm | Active | --- | 12.5 µg/mL (≈ 34.4 µM) | Active | 6.25 µg/mL (≈ 17.2 µM) | --- | --- | --- |  |  |  | 
2 | Oc1cccc(C=Nn2c(Cc3c[nH]c4ccccc34)n[nH]c2=S)c1 [Compound 5a] | 11.2 µg/mL (≈ 31.9 µM) |  | 9 mm | Active |  | 12.5 µg/mL (≈ 35.8 µM) | Active | 12.5 µg/mL (≈ 35.8 µM) | --- | --- |  |  |  |  | 
3 | O=[N+]([O-])c1ccc(C=Nn2c(Cc3c[nH]c4ccccc34)n[nH]c2=S)cc1 [Compound 5d] | 5.7 µg/mL (≈ 15.1 µM) | Active | --- | Active | --- | 12.5 µg/mL (≈ 33 µM) | --- | 12.5 µg/mL (≈ 33 µM) | --- | --- | --- |  |  |  | 
4 | Oc1ccc(C=Nn2c(Cc3c[nH]c4ccccc34)n[nH]c2=S)cc1 [Compound 5e] | 14.1 µg/mL (≈ 40.5 µM) | Active | --- | Active | --- | 12.5 µg/mL (≈ 35.8 µM) | Active | 12.5 µg/mL (≈ 35.8 µM) | --- | 6 mm | --- | active | > 6 mm |  | 
5 | S=c1[nH]nc(Cc2c[nH]c3ccccc23)n1N=Cc1ccc(Cl)cc1 [Compound 5c] | 5.7 µg/mL (≈ 15.5 µM) | Active | --- | Active | --- | 12.5 µg/mL (≈ 34 µM) | --- | 12.5 µg/mL (≈ 34 µM) | --- | --- | --- |  |  |  | 
6 | S=c1[nH]nc(Cc2c[nH]c3ccccc23)n1N=Cc1cccc(Cl)c1 [Compound 5f] | 5.7 µg/mL (≈ 15.5 µM) | --- | --- | Active | --- | 12.5 µg/mL (≈ 34 µM) | --- | 3.12 µg/mL (≈ 8.48 µM) | --- | --- | Active |  |  | 3.12 µg/mL (≈ 8.49 µM) | 
7 | COc1cc(C=Nn2c(Cc3c[nH]c4ccccc34)n[nH]c2=S)cc(OC)c1OC [Compound 5g] | 18.2 µg/mL (≈ 42.9 µM) | --- | 7.5 mm | Active | --- | 12.5 µg/mL (≈ 29.5 µM) | --- | 6.25 µg/mL (≈ 14.8 µM) | --- | --- | Active |  |  |  | 6 mm
